pEC50: −log10 of the molar value. Calls of active or inactive are those of the source. The calls are words filed in the database; no cut-off is given here.
Key:
HEK293 [1] = assay: Agonist activity at RLucII-tagged Galpha-13 (unknown origin) expressed in HEK293 cells co-expressing human UT/GFP10-tagged G-gamma assessed as activation of Galpha-13 at 10^-5 M by BRET assay relative to hUII; format: cell-based; details: filed as agonist, dose 1.0 10^-5M
Aorta [2] = assay: Ex vivo modulatory effect on URP-induced contractile activity in Sprague-Dawley rat aortic ring (reference value: 8.06 +/- 0.27); format: functional, tissue-based
[3] = Agonist activity at RLucII-tagged Galpha-i (unknown origin) expressed in HEK293 cells co-expressing human UT/GFP10-tagged G-gamma assessed as activation of Galpha-i by BRET assay; format: cell-based
Aorta [4] = assay: Ex vivo modulatory effect on URP-induced contractile activity in Sprague-Dawley rat aortic ring at 10^-6 M pretreated for 30 mins followed by URP addition (reference value: 100 +/- 8 %); format: functional; details: 0.5 h, dose 1 10^-6M
Beta-arrestin-1 [5] = target: T1, Beta-arrestin-1 (Homo sapiens, UniProt P49407); assay: Agonist activity at RLucII/GFP10-tagged beta-arrestin-1 (unknown origin) recruitment expressed in HEK293 cells co-expressing human UT assessed as beta-arrestin recruitment by BRET assay; format: cell-based
T1 sequence (P49407 whole entry): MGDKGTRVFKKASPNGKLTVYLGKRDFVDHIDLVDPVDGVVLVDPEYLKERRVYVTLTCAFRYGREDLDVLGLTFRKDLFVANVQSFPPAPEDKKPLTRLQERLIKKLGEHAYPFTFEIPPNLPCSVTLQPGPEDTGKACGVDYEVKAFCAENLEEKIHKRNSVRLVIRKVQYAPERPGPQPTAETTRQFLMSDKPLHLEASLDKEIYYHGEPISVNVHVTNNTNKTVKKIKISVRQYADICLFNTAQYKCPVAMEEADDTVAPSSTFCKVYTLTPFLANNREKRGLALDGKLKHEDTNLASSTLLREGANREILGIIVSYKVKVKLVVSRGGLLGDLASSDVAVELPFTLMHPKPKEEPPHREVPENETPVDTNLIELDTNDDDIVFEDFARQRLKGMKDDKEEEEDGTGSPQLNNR

[6] = target: T2, Guanine nucleotide-binding protein G(q) subunit alpha (Homo sapiens, UniProt P50148); assay: Antagonist activity at hUII-activated RLucII-tagged Galpha-q (unknown origin) expressed in HEK293 cells co-expressing human UT/GFP10-tagged G-gamma by BRET assay (reference value: 8.26 +/- 0.09); format: cell-based
T2 sequence (P50148 whole entry): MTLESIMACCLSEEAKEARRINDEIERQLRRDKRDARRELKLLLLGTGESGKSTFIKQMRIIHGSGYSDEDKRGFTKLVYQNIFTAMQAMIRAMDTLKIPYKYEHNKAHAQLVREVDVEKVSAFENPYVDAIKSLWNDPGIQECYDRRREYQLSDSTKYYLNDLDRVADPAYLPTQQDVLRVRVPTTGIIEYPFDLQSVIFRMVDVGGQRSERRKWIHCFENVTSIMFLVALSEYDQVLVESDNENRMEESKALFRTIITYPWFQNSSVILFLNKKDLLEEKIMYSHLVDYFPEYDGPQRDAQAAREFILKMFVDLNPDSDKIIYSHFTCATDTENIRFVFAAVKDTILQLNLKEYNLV

Aorta [7] = assay: Ex vivo modulatory effect on hUII-induced contractile activity in Sprague-Dawley rat aortic ring (reference value: 8.37 +/- 0.08); format: functional, tissue-based
[8] = target: T3, Guanine nucleotide-binding protein G(q) subunit alpha (Homo sapiens) (UniProt P50148); assay: Agonist activity at RLucII-tagged Galpha-q (unknown origin) expressed in HEK293 cells co-expressing human UT/GFP10-tagged G-gamma assessed as activation of Galpha-q at 10^-5 M by BRET assay; format: cell-based; details: dose 1.0 10^-5M
T3 sequence (whole entry): T2 sequence (P50148 whole entry)

Beta-arrestin-1 [9] = target: T1, Beta-arrestin-1; assay: Agonist activity at RLucII/GFP10-tagged beta-arrestin-1 (unknown origin) expressed in HEK293 cells co-expressing human UT assessed as beta-arrestin recruitment at 10^-5 M by BRET assay relative to hUII; format: cell-based; details: filed as agonist, dose 1.0 10^-5M
Aorta [10] = assay: Ex vivo modulatory effect on hUII-induced contractile activity in Sprague-Dawley rat aortic ring at 10^-6 M pretreated for 30 mins followed by hUII addition (reference value: 100 +/- 9 %); format: functional; details: 0.5 h, dose 1 10^-6M
[11] = target: T3, Guanine nucleotide-binding protein G(q) subunit alpha (Homo sapiens); assay: Antagonist activity at URP-activated RLucII-tagged Galpha-q (unknown origin) expressed in HEK293 cells co-expressing human UT/GFP10-tagged G-gamma at 10^-6 M by BRET assay (reference value: 100 +/- 4 %); format: cell-based; details: filed as antagonist, dose 1.0 10^-6M
[12] = Agonist activity at RLucII-tagged Galpha-13 (unknown origin) expressed in HEK293 cells co-expressing human UT/GFP10-tagged G-gamma assessed as activation of Galpha-13 by BRET assay; format: cell-based
HEK293 [13] = assay: Antagonist activity at hUII-activated RLucII-tagged Galpha-q (unknown origin) expressed in HEK293 cells co-expressing human UT/GFP10-tagged G-gamma at 10^-6 M by BRET assay (reference value: 100 +/- 4 %); format: cell-based; details: filed as antagonist, dose 1.0 10^-6M
HEK293 [14] = assay: Agonist activity at RLucII-tagged Galpha-i (unknown origin) expressed in HEK293 cells co-expressing human UT/GFP10-tagged G-gamma assessed as activation of Galpha-i at 10^-5 M by BRET assay relative to hUII; format: cell-based; details: dose 1.0 10^-5M
[15] = target: T2, Guanine nucleotide-binding protein G(q) subunit alpha; assay: Antagonist activity at URP-activated RLucII-tagged Galpha-q (unknown origin) expressed in HEK293 cells co-expressing human UT/GFP10-tagged G-gamma by BRET assay (reference value: 7.33 +/- 0.10); format: cell-based
[16] = target: T3, Guanine nucleotide-binding protein G(q) subunit alpha (Homo sapiens); assay: Agonist activity at RLucII-tagged Galpha-q (unknown origin) expressed in HEK293 cells co-expressing human UT/GFP10-tagged G-gamma assessed as activation of Galpha-q at 10^-5 M by BRET assay relative to hUII; format: cell-based; details: filed as agonist, dose 1.0 10^-5M
[17] = target: T2, Guanine nucleotide-binding protein G(q) subunit alpha; assay: Agonist activity at RLucII-tagged Galpha-q (unknown origin) expressed in HEK293 cells co-expressing human UT/GFP10-tagged G-gamma assessed as activation of Galpha-q by BRET assay; format: cell-based
HEK293 [18] = assay: Antagonist activity at URP-activated RLucII-tagged Galpha-i (unknown origin) expressed in HEK293 cells co-expressing human UT/GFP10-tagged G-gamma at 10^-6 M by BRET assay (reference value: 100 +/- 7 %); format: cell-based; details: filed as antagonist, dose 1.0 10^-6M
HEK293 [19] = assay: Agonist activity at RLucII-tagged Galpha-i (unknown origin) expressed in HEK293 cells co-expressing human UT/GFP10-tagged G-gamma assessed as activation of Galpha-i at 10^-5 M by BRET assay; format: cell-based; details: dose 1.0 10^-5M
[20] = Antagonist activity at URP-activated RLucII-tagged Galpha-i (unknown origin) expressed in HEK293 cells co-expressing human UT/GFP10-tagged G-gamma by BRET assay (reference value: 7.10 +/- 0.19); format: cell-based
[21] = Antagonist activity at hUII-activated RLucII-tagged Galpha-i (unknown origin) expressed in HEK293 cells co-expressing human UT/GFP10-tagged G-gamma by BRET assay (reference value: 7.41 +/- 0.15); format: cell-based
HEK293 [22] = assay: Antagonist activity at hUII-activated RLucII-tagged Galpha-i (unknown origin) expressed in HEK293 cells co-expressing human UT/GFP10-tagged G-gamma at 10^-6 M by BRET assay (reference value: 100 +/- 5 %); format: cell-based; details: filed as antagonist, dose 1.0 10^-6M
Aorta [23] = assay: Ex vivo modulatory effect on URP-induced contractile activity in Sprague-Dawley rat aortic ring at 10^-6 M pretreated for 30 mins followed by URP addition; format: functional, tissue-based; details: dose 1.0 10^-6M
Aorta [24] = assay: Ex vivo modulatory effect on hUII-induced contractile activity in Sprague-Dawley rat aortic ring at 10^-6 M pretreated for 30 mins followed by hUII addition; format: functional, tissue-based; details: dose 1.0 10^-6M

Compound	Emax (HEK293 [1]) [%]	pEC50 (Aorta [2])	pEC50 [3]	Emax at 1 µM (Aorta [4]) [%]	pEC50 (Beta-arrestin-1 [5])	pEC50 [6]	pEC50 (Aorta [7])	Activity [8]	Emax (Beta-arrestin-1 [9]) [%]	Emax at 1 µM (Aorta [10]) [%]	Emax [11] [%]	pEC50 [12]	Emax (HEK293 [13]) [%]	Emax (HEK293 [14]; filed as agonist) [%]	pEC50 [15]	Emax [16] [%]	pEC50 [17]	further results
NCCCCN1N=C(CCc2ccc(O)cc2)c2ccc(C(=O)NCCCc3ccccc3)cc2N(Cc2ccc(-c3ccccc3)cc2)C1=O	119	8.39	< 5.00	112	6.76	8.23	8.99	inactive	165	143	76	7.66	65	45	7.73			
CC(C)[C@H](NC(=O)[C@@H]1CSSC[C@H](NC(=O)[C@H](C)N)C(=O)N[C@@H](Cc2ccccc2)C(=O)N[C@@H](Cc2c[nH]c3ccccc23)C(=O)N[C@@H](CCCCN)C(=O)N[C@@H](Cc2ccc(O)cc2)C(=O)N1)C(=O)O																101	8.05	
CN(Cc1ccccc1)C(=O)c1ccc2c(c1)N(Cc1ccc(-c3ccccc3)cc1)C(=O)N(CCCCN)N=C2CCc1ccc(O)cc1	152	7.36		71	6.03	8.07	8.17	inactive	194	70	92	6.52	94		7.55			Emax (HEK293 [18]): 91%; Activity (HEK293 [19]): inactive; pEC50 [20]: 6.75; pEC50 [21]: 7.38; Emax (HEK293 [22]): 89%
NCCCCN1N=C(/C=C/c2ccc(O)cc2)c2ccc(C(=O)NCc3ccccc3)cc2N(Cc2ccc(-c3ccccc3)cc2)C1=O	115	7.87	< 5.00	58	5.91	8.15	8.96	inactive	275	121	111	7.98	85		7.77			Emax (HEK293 [14]): 30%
COc1ccc(/C=C/C2=NN(CCCCN)C(=O)N(Cc3ccc(-c4ccccc4)cc3)c3cc(C(=O)NCCOc4ccccc4)ccc32)cc1	102		< 5.00		9.31				78			7.34		50		52	< 5.00	Activity (Aorta [23]): Active; Activity (Aorta [24]): Active
CC(C)[C@H](NC(=O)[C@@H]1CSSC[C@H](NC(=O)[C@H](CC(=O)O)NC(=O)[C@@H]2CCCN2C(=O)[C@@H](NC(=O)[C@@H](N)CCC(=O)O)[C@@H](C)O)C(=O)N[C@@H](Cc2ccccc2)C(=O)N[C@@H](Cc2c[nH]c3ccccc23)C(=O)N[C@@H](CCCCN)C(=O)N[C@@H](Cc2ccc(O)cc2)C(=O)N1)C(=O)O [UROTENSIN-II]			7.74		7.69							7.79					7.86	

— ChEMBL document CHEMBL5370610, “Urotensin II Receptor Modulation with 1,3,4-Benzotriazepin-2-one Tetrapeptide Mimics” (J Med Chem, 2023)
